Test results as given in ChEMBL document CHEMBL4800722, “Data for DCP probe BI 605906” (2021).

Legend:
[1] = molecular target: Serine/threonine-protein kinase VRK2 (Homo sapiens) (UniProt Q86Y07); settings: Compound concentration 1.0 uM
[2] = molecular target: Adrenergic receptor alpha-1 (Rattus norvegicus) (UniProt P15823+P23944+P43140)
[3] = molecular target: Cyclin-dependent kinase 5 (Homo sapiens) (UniProt Q00535); experiment: CDK5 (INACTIVE) Invitrogen Lab (UK) kinase screen (BI); settings: Compound concentration 1.0 uM
[4] = molecular target: LIM domain kinase 2 (Homo sapiens) (UniProt P53671); settings: Compound concentration 1.0 uM
[5] = molecular target: Ephrin type-B receptor 4 (Homo sapiens) (UniProt P54760); settings: Compound concentration 1.0 uM
[6] = molecular target: Tyrosine-protein kinase Tec (Homo sapiens) (UniProt P42680); settings: Compound concentration 1.0 uM
[7] = molecular target: Amine oxidase [flavin-containing] A (MAOA) (Homo sapiens, UniProt P21397); experiment: MAOA Eurofins SafetyScreen44 (BI); design: mode of action inhibitor; settings: compound concentration 10 uM, read-out: % Ctrl
[8] = molecular target: Muscarinic acetylcholine receptor M2 (Homo sapiens) (UniProt P08172); settings: Compound concentration 10.0 uM
[9] = molecular target: Serine/threonine-protein kinase 16 (Homo sapiens) (UniProt O75716); settings: Compound concentration 1.0 uM
[10] = molecular target: Receptor-interacting serine/threonine-protein kinase 2 (Homo sapiens) (UniProt O43353); settings: Compound concentration 1.0 uM
[11] = molecular target: Tyrosine-protein kinase Lck (Homo sapiens) (UniProt P06239); experiment: LCK Invitrogen Lab (UK) kinase screen (BI)
[12] = molecular target: Tyrosine-protein kinase JAK2 (Homo sapiens) (UniProt O60674); settings: Compound concentration 1.0 uM
[13] = molecular target: Tyrosine-protein kinase Fgr (Homo sapiens) (UniProt P09769); experiment: FGR Invitrogen Lab (UK) kinase screen (BI); settings: Compound concentration 1.0 uM
[14] = molecular target: Vascular endothelial growth factor receptor 1 (Homo sapiens) (UniProt P17948); settings: Compound concentration 1.0 uM
[15] = molecular target: Myosin light chain kinase, smooth muscle (Homo sapiens) (UniProt Q15746); experiment: SMMLCK DUNDEE kinase screen (BI); settings: Compound concentration 10.0 uM
[16] = molecular target: Activin receptor type-1 (Homo sapiens) (UniProt Q04771); experiment: ACVR1 Invitrogen Lab (UK) kinase screen (BI); settings: Compound concentration 1.0 uM
[17] = molecular target: Cyclin-dependent kinase 19 (Homo sapiens) (UniProt Q9BWU1); settings: Compound concentration 1.0 uM
[18] = molecular target: MAP kinase-interacting serine/threonine-protein kinase 2 (Homo sapiens) (UniProt Q9HBH9); experiment: MKNK2 (MNK2) Invitrogen Lab (UK) kinase screen (BI); settings: Compound concentration 1.0 uM
[19] = molecular target: Serine/threonine-protein kinase pim-2 (Homo sapiens) (UniProt Q9P1W9); settings: Compound concentration 1.0 uM
[20] = molecular target: Calcium/calmodulin-dependent protein kinase type II subunit beta (Homo sapiens) (UniProt Q13554); settings: Compound concentration 1.0 uM
[21] = molecular target: Tyrosine-protein kinase CSK (Homo sapiens) (UniProt P41240)
[22] = molecular target: Fibroblast growth factor receptor 1 (Homo sapiens) (UniProt P11362)
[23] = molecular target: Serine/threonine-protein kinase MRCK beta (Homo sapiens) (UniProt Q9Y5S2); experiment: CDC42 BPB Invitrogen Lab (UK) kinase screen (BI); settings: Compound concentration 1.0 uM
[24] = molecular target: Serine/threonine-protein kinase WNK2 (Homo sapiens) (UniProt Q9Y3S1); experiment: WNK2 Invitrogen Lab (UK) kinase screen (BI); settings: Compound concentration 1.0 uM
[25] = molecular target: MAP kinase-interacting serine/threonine-protein kinase 1 (Homo sapiens) (UniProt Q9BUB5); experiment: MNK1 DUNDEE kinase screen (BI); settings: Compound concentration 10.0 uM
[26] = molecular target: G protein-coupled receptor kinase 4 (Homo sapiens) (UniProt P32298); settings: Compound concentration 1.0 uM
[27] = molecular target: Serine/threonine-protein kinase SBK1 (Homo sapiens) (UniProt Q52WX2); settings: Compound concentration 1.0 uM
[28] = molecular target: Calcium/calmodulin-dependent protein kinase kinase 2 (Homo sapiens) (UniProt Q96RR4); settings: Compound concentration 1.0 uM
[29] = molecular target: Tyrosine-protein kinase ABL1 (Homo sapiens) (UniProt P00519)
[30] = molecular target: Serine/threonine-protein kinase tousled-like 2 (Homo sapiens) (UniProt Q86UE8); settings: Compound concentration 1.0 uM
[31] = molecular target: Protein kinase C delta type (Homo sapiens) (UniProt Q05655); settings: Compound concentration 1.0 uM
[32] = molecular target: 5-hydroxytryptamine receptor 4 (Cavia porcellus) (UniProt O70528); settings: Compound concentration 10.0 uM
[33] = molecular target: NUAK family SNF1-like kinase 1 (Homo sapiens) (UniProt O60285); experiment: NUAK1 Invitrogen Lab (UK) kinase screen (BI); settings: Compound concentration 1.0 uM
[34] = molecular target: Serine/threonine-protein kinase Nek1 (Homo sapiens) (UniProt Q96PY6)
[35] = molecular target: Aurora kinase B (Homo sapiens) (UniProt Q96GD4); settings: Compound concentration 1.0 uM
[36] = molecular target: Serine/threonine-protein kinase Nek4 (Homo sapiens) (UniProt P51957); settings: Compound concentration 1.0 uM
[37] = molecular target: Sigma intracellular receptor 2 (Homo sapiens) (UniProt Q5BJF2); settings: Compound concentration 10.0 uM
[38] = molecular target: SRSF protein kinase 3 (Homo sapiens) (UniProt Q9UPE1); settings: Compound concentration 1.0 uM
[39] = molecular target: Serine/threonine-protein kinase pim-1 (Homo sapiens) (UniProt P11309)
[40] = molecular target: Mitogen-activated protein kinase 13 (Homo sapiens) (UniProt O15264); settings: Compound concentration 1.0 uM
[41] = molecular target: Phosphatidylinositol 5-phosphate 4-kinase type-2 alpha (Homo sapiens) (UniProt P48426); experiment: PIP4K2A Invitrogen Lab (UK) kinase screen (BI); settings: Compound concentration 1.0 uM
[42] = molecular target: cGMP-dependent protein kinase 1 (Homo sapiens) (UniProt Q13976); settings: Compound concentration 1.0 uM
[43] = molecular target: Calcium/calmodulin-dependent protein kinase type II subunit alpha (Homo sapiens) (UniProt Q9UQM7); settings: Compound concentration 1.0 uM

Chain of Tyrosine-protein kinase ABL1 (Homo sapiens) (P00519 whole entry): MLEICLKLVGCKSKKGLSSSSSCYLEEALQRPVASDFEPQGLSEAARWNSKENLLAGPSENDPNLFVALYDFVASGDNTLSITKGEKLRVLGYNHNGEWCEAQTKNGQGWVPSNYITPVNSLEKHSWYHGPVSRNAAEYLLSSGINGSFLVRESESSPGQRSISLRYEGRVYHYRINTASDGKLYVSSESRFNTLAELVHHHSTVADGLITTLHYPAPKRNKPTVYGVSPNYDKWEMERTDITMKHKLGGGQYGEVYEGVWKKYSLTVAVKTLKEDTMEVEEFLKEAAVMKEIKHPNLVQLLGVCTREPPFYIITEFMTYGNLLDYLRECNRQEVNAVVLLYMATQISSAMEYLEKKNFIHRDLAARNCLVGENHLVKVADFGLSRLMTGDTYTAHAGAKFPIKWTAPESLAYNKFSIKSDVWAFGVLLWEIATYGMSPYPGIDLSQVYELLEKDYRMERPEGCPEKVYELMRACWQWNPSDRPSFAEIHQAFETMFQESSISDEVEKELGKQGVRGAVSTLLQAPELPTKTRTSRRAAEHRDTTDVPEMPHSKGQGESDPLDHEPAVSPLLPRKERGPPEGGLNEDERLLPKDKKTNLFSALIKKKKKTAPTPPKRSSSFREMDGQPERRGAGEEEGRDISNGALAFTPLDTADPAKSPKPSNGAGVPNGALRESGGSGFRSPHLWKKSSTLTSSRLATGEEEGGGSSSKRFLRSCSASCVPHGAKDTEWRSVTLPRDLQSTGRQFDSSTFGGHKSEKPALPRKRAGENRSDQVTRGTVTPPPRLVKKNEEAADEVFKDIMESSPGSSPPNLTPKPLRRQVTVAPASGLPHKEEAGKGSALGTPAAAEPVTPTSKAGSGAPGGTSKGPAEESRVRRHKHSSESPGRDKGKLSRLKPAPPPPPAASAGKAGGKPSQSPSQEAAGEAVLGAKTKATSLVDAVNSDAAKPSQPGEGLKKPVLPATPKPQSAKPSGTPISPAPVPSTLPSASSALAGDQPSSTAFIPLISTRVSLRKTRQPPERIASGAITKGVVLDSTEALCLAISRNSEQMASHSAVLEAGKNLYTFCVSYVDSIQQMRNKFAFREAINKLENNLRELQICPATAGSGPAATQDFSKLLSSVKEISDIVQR
Chain of Fibroblast growth factor receptor 1 (Homo sapiens) (P11362 22-822 limits assumed): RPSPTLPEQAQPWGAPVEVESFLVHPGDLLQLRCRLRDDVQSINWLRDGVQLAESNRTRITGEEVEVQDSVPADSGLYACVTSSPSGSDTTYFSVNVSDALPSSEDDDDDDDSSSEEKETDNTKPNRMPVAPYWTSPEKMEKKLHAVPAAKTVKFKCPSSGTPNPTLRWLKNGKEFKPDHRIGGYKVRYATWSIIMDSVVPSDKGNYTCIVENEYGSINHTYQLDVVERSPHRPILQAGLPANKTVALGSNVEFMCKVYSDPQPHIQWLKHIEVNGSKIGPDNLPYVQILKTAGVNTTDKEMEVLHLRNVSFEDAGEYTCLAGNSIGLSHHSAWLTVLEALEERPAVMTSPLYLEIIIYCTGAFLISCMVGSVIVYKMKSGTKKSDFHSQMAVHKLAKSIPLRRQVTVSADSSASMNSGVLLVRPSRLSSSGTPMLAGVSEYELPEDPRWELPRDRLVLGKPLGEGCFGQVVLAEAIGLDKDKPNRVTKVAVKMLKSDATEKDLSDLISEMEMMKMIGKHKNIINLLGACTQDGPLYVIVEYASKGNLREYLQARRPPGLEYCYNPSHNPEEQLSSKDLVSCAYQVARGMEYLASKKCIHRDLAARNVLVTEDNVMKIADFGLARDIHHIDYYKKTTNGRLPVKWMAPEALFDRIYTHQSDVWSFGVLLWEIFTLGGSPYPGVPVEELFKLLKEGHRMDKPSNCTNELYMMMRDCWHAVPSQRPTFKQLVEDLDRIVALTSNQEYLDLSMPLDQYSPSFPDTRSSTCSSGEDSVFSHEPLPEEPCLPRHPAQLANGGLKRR
Chain of Tyrosine-protein kinase Lck (Homo sapiens) (P06239 2-509 limits assumed): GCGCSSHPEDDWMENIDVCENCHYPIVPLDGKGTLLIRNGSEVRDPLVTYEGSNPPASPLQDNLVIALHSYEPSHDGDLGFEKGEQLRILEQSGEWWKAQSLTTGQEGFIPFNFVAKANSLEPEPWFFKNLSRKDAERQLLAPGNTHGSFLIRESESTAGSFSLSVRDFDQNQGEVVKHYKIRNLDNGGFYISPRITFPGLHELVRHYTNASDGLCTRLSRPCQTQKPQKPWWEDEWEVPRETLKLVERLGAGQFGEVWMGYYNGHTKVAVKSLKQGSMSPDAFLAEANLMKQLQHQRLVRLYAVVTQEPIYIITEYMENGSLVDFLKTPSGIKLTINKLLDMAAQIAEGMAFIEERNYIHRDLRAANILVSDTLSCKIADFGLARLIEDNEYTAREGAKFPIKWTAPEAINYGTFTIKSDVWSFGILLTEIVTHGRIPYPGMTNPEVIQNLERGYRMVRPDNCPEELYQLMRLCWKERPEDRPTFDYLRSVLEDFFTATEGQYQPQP
Chain of Tyrosine-protein kinase CSK (Homo sapiens) (P41240 2-450 limits assumed): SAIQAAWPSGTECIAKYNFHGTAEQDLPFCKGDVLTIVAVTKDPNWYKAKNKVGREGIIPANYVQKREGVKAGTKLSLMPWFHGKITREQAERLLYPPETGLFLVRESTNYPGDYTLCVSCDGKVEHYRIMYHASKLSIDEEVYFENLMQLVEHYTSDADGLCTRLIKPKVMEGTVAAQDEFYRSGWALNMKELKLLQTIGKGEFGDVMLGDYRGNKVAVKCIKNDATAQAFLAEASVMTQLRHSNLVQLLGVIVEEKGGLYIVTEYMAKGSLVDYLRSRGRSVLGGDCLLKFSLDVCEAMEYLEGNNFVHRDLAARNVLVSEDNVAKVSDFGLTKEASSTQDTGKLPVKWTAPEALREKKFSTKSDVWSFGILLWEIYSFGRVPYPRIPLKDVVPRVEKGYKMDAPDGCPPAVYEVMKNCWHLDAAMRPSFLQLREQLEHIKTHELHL
Chain of Serine/threonine-protein kinase Nek1 (Homo sapiens) (Q96PY6 whole entry): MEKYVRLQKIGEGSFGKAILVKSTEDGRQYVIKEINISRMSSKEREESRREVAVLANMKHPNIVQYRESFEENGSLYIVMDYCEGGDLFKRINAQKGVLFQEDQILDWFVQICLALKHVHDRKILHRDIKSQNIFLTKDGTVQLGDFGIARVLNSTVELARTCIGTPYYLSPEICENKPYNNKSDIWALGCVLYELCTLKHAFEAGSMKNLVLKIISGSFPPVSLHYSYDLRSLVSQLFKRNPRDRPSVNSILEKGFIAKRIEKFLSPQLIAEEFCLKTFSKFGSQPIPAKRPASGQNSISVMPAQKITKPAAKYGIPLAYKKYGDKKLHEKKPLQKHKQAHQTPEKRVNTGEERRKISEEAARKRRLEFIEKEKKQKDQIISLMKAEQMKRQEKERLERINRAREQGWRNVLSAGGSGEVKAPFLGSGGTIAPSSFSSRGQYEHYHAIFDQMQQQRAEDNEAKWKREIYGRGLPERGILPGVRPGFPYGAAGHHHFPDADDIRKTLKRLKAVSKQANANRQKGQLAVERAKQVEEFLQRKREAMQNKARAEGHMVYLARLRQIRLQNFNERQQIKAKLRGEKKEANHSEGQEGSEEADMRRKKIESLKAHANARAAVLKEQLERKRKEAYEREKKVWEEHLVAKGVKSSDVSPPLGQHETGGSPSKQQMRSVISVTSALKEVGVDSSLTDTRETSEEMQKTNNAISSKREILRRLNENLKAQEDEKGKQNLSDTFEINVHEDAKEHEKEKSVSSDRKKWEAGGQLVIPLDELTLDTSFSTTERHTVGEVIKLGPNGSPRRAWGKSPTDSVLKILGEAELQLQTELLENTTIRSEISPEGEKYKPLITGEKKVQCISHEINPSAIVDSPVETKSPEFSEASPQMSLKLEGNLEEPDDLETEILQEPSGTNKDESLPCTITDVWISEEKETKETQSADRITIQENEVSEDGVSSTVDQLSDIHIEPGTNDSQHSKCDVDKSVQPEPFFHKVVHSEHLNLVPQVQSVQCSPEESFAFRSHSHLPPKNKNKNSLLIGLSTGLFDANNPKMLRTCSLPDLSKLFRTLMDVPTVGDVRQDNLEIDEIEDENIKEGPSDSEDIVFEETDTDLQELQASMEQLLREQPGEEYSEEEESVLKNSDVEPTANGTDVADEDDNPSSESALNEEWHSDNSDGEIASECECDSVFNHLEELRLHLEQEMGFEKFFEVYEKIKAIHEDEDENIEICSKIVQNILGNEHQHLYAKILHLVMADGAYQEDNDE
Chain of Serine/threonine-protein kinase pim-1 (Homo sapiens) (P11309 whole entry, looked up): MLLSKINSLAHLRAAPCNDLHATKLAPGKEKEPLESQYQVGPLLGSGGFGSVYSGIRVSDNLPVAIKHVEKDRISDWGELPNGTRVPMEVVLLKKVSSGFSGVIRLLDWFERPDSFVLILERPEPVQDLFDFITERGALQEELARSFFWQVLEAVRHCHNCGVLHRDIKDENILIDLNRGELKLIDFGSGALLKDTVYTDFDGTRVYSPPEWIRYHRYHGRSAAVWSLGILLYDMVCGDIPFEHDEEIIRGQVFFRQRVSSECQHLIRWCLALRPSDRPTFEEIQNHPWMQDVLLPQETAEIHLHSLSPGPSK
Chain of Cyclin-dependent kinase 5 (Homo sapiens) (Q00535 whole entry, looked up, the tested form may be a part): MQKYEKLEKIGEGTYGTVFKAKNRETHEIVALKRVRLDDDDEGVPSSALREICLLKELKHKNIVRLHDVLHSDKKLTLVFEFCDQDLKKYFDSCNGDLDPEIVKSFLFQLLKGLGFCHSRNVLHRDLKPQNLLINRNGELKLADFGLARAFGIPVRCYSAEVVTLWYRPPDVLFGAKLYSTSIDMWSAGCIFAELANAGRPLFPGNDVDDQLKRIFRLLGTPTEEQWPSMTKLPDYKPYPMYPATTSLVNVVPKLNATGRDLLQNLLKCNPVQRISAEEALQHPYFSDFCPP
Chain of Sigma intracellular receptor 2 (Homo sapiens) (Q5BJF2 whole entry): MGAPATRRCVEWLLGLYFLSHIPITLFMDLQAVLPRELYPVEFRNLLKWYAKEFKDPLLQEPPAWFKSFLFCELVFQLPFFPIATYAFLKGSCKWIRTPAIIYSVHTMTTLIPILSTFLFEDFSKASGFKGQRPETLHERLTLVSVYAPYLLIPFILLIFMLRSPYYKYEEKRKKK

Work on `CCC(F)(F)c1cc(N2CCC(S(C)(=O)=O)CC2)nc2sc(C(N)=O)c(N)c12` [BI-605906] yielded a residual activity [1] of 82%, a residual activity ([2]; Compound concentration 10.0 uM) of 109% and a residual activity ([2]; Compound concentration 100.0 uM) of 93%. The residual activity [3] was 83%, the residual activity [4] was 95% and the residual activity [5] was 90%. The residual activity [6] was 96%, the activity at 10 µM [7] was 68% (not active) and the inhibition [8] was 8%. For the same compound, the residual activity [9] was 91%, the residual activity [10] was 94% and the residual activity ([11]; Compound concentration 1.0 uM) was 68%. It also gave a residual activity ([11]; Compound concentration 10.0 uM) of 67%, a residual activity [12] of 94% and a residual activity [13] of 78%. The residual activity [14] was 100%, the residual activity [15] was 57.7% and the residual activity [16] was 79%. For the same compound, the residual activity [17] was 87%, the residual activity [18] was 68% and the residual activity [19] was 99%. The residual activity [20] was 99%, the residual activity ([21]; Compound concentration 1.0 uM) was 96% and the residual activity ([21]; Compound concentration 10.0 uM) was 84%. The residual activity ([22]; Compound concentration 1.0 uM) was 84%, the residual activity ([22]; Compound concentration 10.0 uM) was 91% and the residual activity [23] was 103%. The residual activity [24] was 86%, the residual activity [25] was 93.8% and the residual activity [26] was 100%. The residual activity [27] was 98%, the residual activity [28] was 93% and the residual activity ([29]; Compound concentration 1.0 uM) was 95%. For the same compound, the residual activity ([29]; Compound concentration 10.0 uM) was 77%, the residual activity [30] was 98% and the residual activity [31] was 109%. For the same compound, the residual activity [32] was 98%, the residual activity [33] was 84% and the residual activity ([34]; Compound concentration 1.0 uM) was 92%. It also gave a residual activity ([34]; Compound concentration 10.0 uM) of 30%, a residual activity [35] of 98% and a residual activity [36] of 89%. It also gave an inhibition [37] of 34.5%, a residual activity [38] of 99% and a residual activity ([39]; Compound concentration 1.0 uM) of 90%. The residual activity ([39]; Compound concentration 10.0 uM) was 99%, the residual activity [40] was 94% and the residual activity [41] was 115%. The residual activity [42] was 97% and the residual activity [43] was 100%.
